Assays:
[1] = tested on: pCHK1 (S345) in Colo320 DM cells; assay: Alphalisa assay, detection of pCHK1 (S345) in Colo320 DM cells; format: cell-based; details: Homo sapiens, COLO 320DM, compound incubation overnight (approximately 16 hours)
Description: Colo320 DM cells (ATCC #CCL-220, derived from human colorectal adenocarcinoma, Dukes' type C) were seeded on a 96-well, cell culture treated assay plate at a density of 50,000 cells/well in 200 μL of RPMI-1640 media supplemented with 10% Fetal Bovine Serum and incubated at 37° C. overnight. The following day, test compound dilutions were added directly to the plated cells by a Tecan digital dispenser to a final DMSO concentration of <0.5%, and incubated at 37° C. overnight (approximately 16 hours). The following day all cull culture media was removed from the cells. 75 μL of 1× AlphaLisa lysis buffer was added to each well and plates were agitated on a shaker for 30 minutes at room temperature. The lysis of cells and detection of pCHK1 (S345) were performed with regents contained within the AlphaLisa Sure Fire assay kit (Perkin Elmer #ALSU-PCHK1-A) according to the manufacturer's instructions. 10 μL of each lysate was then transferred to a white, 384-well assay plate (Perkin Elmer #6008280), 5 μL of Acceptor mix was then added to each well of lysate in the white, 384-well assay plate and incubated in the dark at room temperature for 60 minutes. 5 μL of Donor mix was then added to each well of the white, 384-well assay plate in subdued light and incubated at room temperature for 60 minutes. Plates were read on an Alpha Technology-compatible plate reader using standard AlphaLisa settings.

RNR (RNR1:RNR2 1:1) = molecular target: T1, RNR (RNR1:RNR2 1:1) (Homo sapiens, UniProt P23921+P31350); assay: RNR enzyme activity, rapid-fire mass spectrometry (RF/MS) assay; format: biochemical; details: RNR 50 nM, 1:1 (RNR1:RNR2); CDP 5 μM; ATP 1 mM; 37° C., 45 min; compounds screened up to 50 μM
T1 sequence (P23921 1-792): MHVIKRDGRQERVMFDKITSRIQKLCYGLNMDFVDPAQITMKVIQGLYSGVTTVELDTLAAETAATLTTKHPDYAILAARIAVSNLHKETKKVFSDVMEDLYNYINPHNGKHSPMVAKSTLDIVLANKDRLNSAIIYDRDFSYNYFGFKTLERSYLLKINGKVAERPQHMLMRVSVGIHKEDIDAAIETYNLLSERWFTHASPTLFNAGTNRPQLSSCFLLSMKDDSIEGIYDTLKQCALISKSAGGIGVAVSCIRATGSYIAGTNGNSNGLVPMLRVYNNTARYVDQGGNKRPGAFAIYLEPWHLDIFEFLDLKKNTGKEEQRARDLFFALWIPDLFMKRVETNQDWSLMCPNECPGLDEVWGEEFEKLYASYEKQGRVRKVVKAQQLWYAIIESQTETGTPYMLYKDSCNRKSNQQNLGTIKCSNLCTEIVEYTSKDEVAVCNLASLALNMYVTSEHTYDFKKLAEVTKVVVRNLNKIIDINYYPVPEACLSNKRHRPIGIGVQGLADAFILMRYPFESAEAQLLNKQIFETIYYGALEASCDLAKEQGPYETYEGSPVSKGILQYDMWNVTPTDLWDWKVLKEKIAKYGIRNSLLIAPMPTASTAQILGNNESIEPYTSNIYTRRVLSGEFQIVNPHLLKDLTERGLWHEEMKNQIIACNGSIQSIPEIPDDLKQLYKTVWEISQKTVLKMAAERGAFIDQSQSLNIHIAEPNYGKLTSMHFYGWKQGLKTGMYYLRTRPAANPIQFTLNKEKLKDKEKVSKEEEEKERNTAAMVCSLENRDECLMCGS
T1 sequence (P31350 1-389): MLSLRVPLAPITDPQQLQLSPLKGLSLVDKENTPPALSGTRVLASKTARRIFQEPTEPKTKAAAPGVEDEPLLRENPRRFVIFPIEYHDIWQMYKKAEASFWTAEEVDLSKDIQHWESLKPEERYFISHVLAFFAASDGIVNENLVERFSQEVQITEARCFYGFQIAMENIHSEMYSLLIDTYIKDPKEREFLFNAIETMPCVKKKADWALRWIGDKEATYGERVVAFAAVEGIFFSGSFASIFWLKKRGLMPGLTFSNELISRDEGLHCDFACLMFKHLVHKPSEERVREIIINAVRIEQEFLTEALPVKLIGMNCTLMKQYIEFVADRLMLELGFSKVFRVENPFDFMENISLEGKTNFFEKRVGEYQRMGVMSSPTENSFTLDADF
Description: A rapid-fire mass spectrometry (RF/MS) assay was used to assess RNR enzyme activity using a 384 well plate and a robotic platform.
The plate layout included two validated reference compounds (Triapine (3-AP) and Hydroxyurea (HU)): • A dose response in duplicate, top concentration: 5 μM (3-AP) and 250 μM (HU), semi-log • dilutions. • Spike wells in triplicate randomly spotted at four concentrations: • 250 μM, 100 μM, 30 μM and 2 μM for HU • 5 μM, 2 μM, 0.6 μM and 0.04 μM for 3-AP
First, the multidrop pipes were saturated for 30 minutes with enzymatic solution. Then 30 μL of Stop solution was distributed in column 24. Next, 15 μL of enzyme was distributed in column 1 to 24. Next, a pre-incubation step of 15 minutes at room temperature occurred, followed by distribution of 15 μL of substrate solution (column 1 to 24). Next, the plate was incubated for 45 minutes at 37° C. 30 μL of Stop solution was distributed to columns 1 to 23.
The final parameters for the enzyme reactions were: • Incubation: 37° C., 45 min • [CDP]: 5 μM: [ATP]: 1 mM; [NADPH]: No • [RNR]final: 50 nM with 1:1 (RNR1:RNR2) ratio • Final volume: 30 μL • Stop solution: 6% HCOOH containing 2 μM of 15

For `CN(CC1CCN1S(=O)(=O)c1ccc2cc[nH]c2c1)c1ccc(O)cc1` (centres unmarked) [compound 45, 4-(((1-((1H-indol-6-yl)sulfonyl)azetidin-2-yl)methyl)(methyl)amino) phenol], the IC50 [1] was 5 to 10 µM and the IC50 (RNR (RNR1:RNR2 1:1)) was 50 to 100 nM.
`O=S(=O)(c1ccc2cc[nH]c2c1)N1C[C@H]2CC[C@@H](C1)N2c1ccc(O)cc1` [compound 26, 4-((1R,5S)-3-((1H-indol-6-yl)sulfonyl)-3,8-diazabicyclo[3.2.1]octan-8-yl)phenol] showed an IC50 [1] of 5 to 10 µM and an IC50 (RNR (RNR1:RNR2 1:1)) of 100 to 500 nM.
With `O=S(=O)(c1ccc2cc[nH]c2c1)N1CC[C@H](N(Cc2cccnc2)c2ccc(O)cc2)C1` [compound 50, (S)-4-((1-((1H-indol-6-yl)sulfonyl)pyrrolidin-3-yl)(pyridin-3-ylmethyl)amino)phenol] the IC50 [1] was 10 to 50 µM and the IC50 (RNR (RNR1:RNR2 1:1)) was 100 to 500 nM.
`O=S(=O)(c1ccc2cc[nH]c2c1)N1CCC(Oc2ccc(O)cc2)C1` (centres unmarked) [compound 40, 4-((1-((1H-indol-6-yl)sulfonyl)pyrrolidin-3-yl)oxy)phenol] showed an IC50 [1] of at most 1 µM and an IC50 (RNR (RNR1:RNR2 1:1)) of at most 50 nM.
`Cn1ccc2cccc(S(=O)(=O)N3CCN(c4ccc(O)cc4)CC3)c21` [compound 1, 4-(4-((1-methyl-1H-indol-7-yl)sulfonyl)piperazin-1-yl)phenol] was tested, and the IC50 [1] was 5 to 10 µM and the IC50 (RNR (RNR1:RNR2 1:1)) was at most 50 nM.
Work on `O=S(=O)(c1ccc2cc[nH]c2c1)N1CC2CN(c3ccc(O)cc3)CCC21` (centres unmarked) [compound 51, 4-(7-((1H-indol-6-yl)sulfonyl)-3,7-diazabicyclo[4.2.0]octan-3-yl)phenol] yielded an IC50 [1] of 5 to 10 µM and an IC50 (RNR (RNR1:RNR2 1:1)) of 100 to 500 nM.
Work on `O=S(=O)(c1ccc2cc[nH]c2c1)N1CCN(c2ccc(O)cc2)CC12CCC2` [compound 46, 4-(5-((1H-indol-6-yl)sulfonyl)-5,8-diazaspiro[3.5]nonan-8-yl)phenol] yielded an IC50 [1] of 1 to 5 µM and an IC50 (RNR (RNR1:RNR2 1:1)) of 50 to 100 nM.
For `C[C@@H]1[C@H](Nc2ccc(O)cc2)CN1S(=O)(=O)c1ccc2cc[nH]c2c1` (racemic) [compound 36, rac-4-(((2R,3R)-1-((1H-indol-6-yl)sulfonyl)-2-methylazetidin-3-yl)amino)phenol], the IC50 [1] was 1 to 5 µM and the IC50 (RNR (RNR1:RNR2 1:1)) was 100 to 500 nM.
`O=S(=O)(c1ccc2cc[nH]c2c1)N1C[C@H]2CCC[C@@H](C1)N2c1ccc(O)cc1` [compound 28, 4-((1R,5S)-3-((1H-indol-6-yl)sulfonyl)-3,9-diazabicyclo[3.3.1]nonan-9-yl)phenol] gave an IC50 [1] of 1 to 5 µM and an IC50 (RNR (RNR1:RNR2 1:1)) of at most 50 nM.
`Cn1ccc2ccc(S(=O)(=O)N3CCN(c4ccc(O)cc4)CC3)cc21` [compound 3, 4-(4-((1-methyl-1H-indol-6-yl)sulfonyl)piperazin-1-yl)phenol] showed an IC50 [1] of 5 to 10 µM and an IC50 (RNR (RNR1:RNR2 1:1)) of 100 to 500 nM.
In the case of `CN(CC1CN(S(=O)(=O)c2ccc3cc[nH]c3c2)C1)c1ccc(O)cc1` [compound 29, 4-(((1-((1H-indol-6-yl)sulfonyl)azetidin-3-yl)methyl)(methyl)amino) phenol], the IC50 [1] is reported as 5 to 10 µM and the IC50 (RNR (RNR1:RNR2 1:1)) is reported as at most 50 nM.
In the case of `CN(c1ccc(O)cc1)C1CCN(S(=O)(=O)c2ccc3cc[nH]c3c2)C1` (racemic) [compound 20, rac-(R)-4-((1-((1H-indol-6-yl)sulfonyl)pyrrolidin-3-yl)(methyl)amino)phenol], the IC50 [1] is reported as at most 1 µM and the IC50 (RNR (RNR1:RNR2 1:1)) is reported as at most 50 nM.
`CN(c1ccc(O)cc1)C1CN(S(=O)(=O)c2cccc3[nH]ccc23)C1` [compound 24, 4-((1-((1H-indol-4-yl)sulfonyl)azetidin-3-yl)(methyl)amino)phenol] gave an IC50 [1] of 1 to 5 µM and an IC50 (RNR (RNR1:RNR2 1:1)) of 50 to 100 nM.
`Cn1ccc2cc(S(=O)(=O)N3CCN(c4ccc(O)cc4)CC3)cnc21` [compound 6, 4-(4-((1-methyl-1H-pyrrolo[2,3-b]pyridin-5-yl)sulfonyl)piperazin-1-yl)phenol] gave an IC50 [1] of 10 to 50 µM and an IC50 (RNR (RNR1:RNR2 1:1)) of 100 to 500 nM.
With `CN(C1CCN(c2ccc(O)cc2)CC1)S(=O)(=O)c1ccc2cc[nH]c2c1` [compound 12, N-(1-(4-hydroxyphenyl)piperidin-4-yl)-N-methyl-1H-indole-6-sulfonamide] the IC50 [1] was 5 to 10 µM and the IC50 (RNR (RNR1:RNR2 1:1)) was at most 50 nM.
Work on `O=S(=O)(c1cccc2cc[nH]c12)N1CCN(c2ccc(O)cc2)CC1` [compound 5, 4-(4-((1H-indol-7-yl)sulfonyl)piperazin-1-yl)phenol] yielded an IC50 [1] of 1 to 5 µM and an IC50 (RNR (RNR1:RNR2 1:1)) of 100 to 500 nM.
`CN(c1ccc(O)cc1)C1CCN(S(=O)(=O)c2ccc3cc[nH]c3c2)CC1` [compound 15, 4-((1-((1H-indol-6-yl)sulfonyl)piperidin-4-yl)(methyl)amino)phenol] showed an IC50 [1] of 1 to 5 µM and an IC50 (RNR (RNR1:RNR2 1:1)) of 50 to 100 nM.
For `O=S(=O)(c1cc2ccccc2[nH]1)N1CCC2(CCN(c3ccc(O)cc3)CC2)C1` [compound 47, 4-(2-((1H-indol-2-yl)sulfonyl)-2,8-diazaspiro[4.5]decan-8-yl)phenol], the IC50 [1] was 10 to 50 µM and the IC50 (RNR (RNR1:RNR2 1:1)) was 100 to 500 nM.
`C[C@@H]1CN(S(=O)(=O)c2ccc3cc[nH]c3c2)C[C@H]1N(C)c1ccc(O)cc1` (racemic) [compound 39, rac-4-(((3R,4S)-1-((1H-indol-6-yl)sulfonyl)-4-methylpyrrolidin-3-yl)(methyl)amino)phenol] was tested, and the IC50 [1] was 1 to 5 µM and the IC50 (RNR (RNR1:RNR2 1:1)) was at most 50 nM.
`O=S(=O)(c1ccc2cc[nH]c2c1)N1CC(O)C(Nc2ccc(O)cc2)C1` (centres unmarked) [compound 44, 1-((1H-indol-6-yl)sulfonyl)-4-((4-hydroxyphenyl)amino) pyrrolidin-3-ol] showed an IC50 [1] of 5 to 10 µM and an IC50 (RNR (RNR1:RNR2 1:1)) of 50 to 100 nM.
Compound `O=S(=O)(c1ccc2cc[nH]c2c1)N1[C@@H]2CCC[C@H]1CN(c1ccc(O)cc1)C2` [compound 34, 4-((1R,5S)-9-((1H-indol-6-yl)sulfonyl)-3,9-diazabicyclo[3.3.1]nonan-3-yl)phenol] has an IC50 [1] of 1 to 5 µM and an IC50 (RNR (RNR1:RNR2 1:1)) of at most 50 nM.
For `CN(c1ccc(O)cc1)C1CN(S(=O)(=O)c2ccc3cn[nH]c3c2)C1` [compound 18, 4-((1-((1H-indazol-6-yl)sulfonyl)azetidin-3-yl)(methyl)amino)phenol], the IC50 [1] was 10 to 50 µM and the IC50 (RNR (RNR1:RNR2 1:1)) was 100 to 500 nM.
Compound `O=S(=O)(c1ccc2cc[nH]c2c1)N1CC(Nc2ccc(O)cc2)C1` [compound 11, 4-((1-((1H-indol-6-yl)sulfonyl)azetidin-3-yl)amino)phenol] has an IC50 [1] of 1 to 5 µM and an IC50 (RNR (RNR1:RNR2 1:1)) of at most 50 nM.
Compound `O=S(=O)(c1ccc2cc[nH]c2c1)N1CC(N(c2ccc(O)cc2)C2CC2)C1` [compound 19, 4-((1-((1H-indol-6-yl)sulfonyl)azetidin-3-yl)(cyclopropyl)amino)phenol] has an IC50 [1] of 1 to 5 µM and an IC50 (RNR (RNR1:RNR2 1:1)) of at most 50 nM.
`CN(C1CN(c2ccc(O)cc2)C1)S(=O)(=O)c1ccc2cc[nH]c2c1` [compound 16, N-(1-(4-hydroxyphenyl)azetidin-3-yl)-N-methyl-1H-indole-6-sulfonamide] was tested, and the IC50 [1] was 1 to 5 µM and the IC50 (RNR (RNR1:RNR2 1:1)) was 100 to 500 nM.
